Data taken from ChEMBL document CHEMBL3612057, “Discovery of indolizines containing triazine moiety as new leads for the development of antitumoral agents targeting mitotic events” (2015).
Active and inactive are the calls of the source. No cut-off for these calls is given here.

Legend:
CCRF-CEM = assay: Cytotoxicity against human CCRF-CEM cells assessed as growth inhibition at 10 uM after 24 hrs by SRB assay; type: functional
HL-60(TB) = assay: Cytotoxicity against human HL-60(TB) cells assessed as growth inhibition at 10 uM after 24 hrs by SRB assay; type: functional; conditions: HL-60, 24 h, read-out: GI
K562 = assay: Cytotoxicity against human K562 cells assessed as growth inhibition at 10 uM after 24 hrs by SRB assay; type: functional; conditions: K562, 24 h, read-out: GI
RPMI-8226 = assay: Cytotoxicity against human RPMI8226 cells assessed as growth inhibition at 10 uM after 24 hrs by SRB assay; type: functional; conditions: RPMI-8226, 24 h, read-out: GI
SR = assay: Cytotoxicity against human SR cells assessed as growth inhibition at 10 uM after 24 hrs by SRB assay; type: functional; conditions: read-out: GI
A549 = assay: Cytotoxicity against human A549 cells assessed as growth inhibition at 10 uM after 24 hrs by SRB assay; type: functional; conditions: A549, 24 h, read-out: GI
HOP-62 [1] = assay: Cytotoxicity against human HOP62 cells assessed as growth inhibition at 10 uM after 24 hrs by SRB assay; type: functional; conditions: HOP-62, 24 h, read-out: GI
HOP-92 [2] = assay: Cytotoxicity against human HOP92 cells assessed as growth inhibition at 10 uM after 24 hrs by SRB assay; type: functional; conditions: HOP-92, 24 h, read-out: GI
NCI-H226 = assay: Cytotoxicity against human NCI-H226 cells assessed as growth inhibition at 10 uM after 24 hrs by SRB assay; type: functional; conditions: NCI-H226, 24 h, read-out: GI
NCI-H460 = assay: Cytotoxicity against human NCI-H460 cells assessed as growth inhibition at 10 uM after 24 hrs by SRB assay; type: functional; conditions: NCI-H460, 24 h, read-out: GI
NCI-H522 = assay: Cytotoxicity against human NCI-H522 cells assessed as growth inhibition at 10 uM after 24 hrs by SRB assay; type: functional; conditions: NCI-H522, 24 h, read-out: GI
HCT-116 = assay: Cytotoxicity against human HCT116 cells assessed as growth inhibition at 10 uM after 24 hrs by SRB assay; type: functional; conditions: HCT-116, 24 h, read-out: GI
SF-295 = assay: Cytotoxicity against human SF295 cells assessed as growth inhibition at 10 uM after 24 hrs by SRB assay; type: functional; conditions: SF-295, 24 h, read-out: GI
SF-539 = assay: Cytotoxicity against human SF539 cells assessed as growth inhibition at 10 uM after 24 hrs by SRB assay; type: functional; conditions: SF-539, 24 h, read-out: GI
SNB-75 [3] = assay: Cytotoxicity against human SNB75 cells assessed as growth inhibition at 10 uM after 24 hrs by SRB assay; type: functional; conditions: SNB-75, 24 h, read-out: GI
U-251 [4] = assay: Cytotoxicity against human U251 cells assessed as growth inhibition at 10 uM after 24 hrs by SRB assay; type: functional; conditions: U-251, 24 h, read-out: GI
Malme-3M = assay: Cytotoxicity against human MALME-3M cells assessed as growth inhibition at 10 uM after 24 hrs by SRB assay; type: functional; conditions: read-out: GI
MDA-MB-435 = assay: Cytotoxicity against human MDA-MB-435 cells assessed as growth inhibition at 10 uM after 24 hrs by SRB assay; type: functional; conditions: MDA-MB-435, 24 h, read-out: GI
SK-MEL-28 [5] = assay: Cytotoxicity against human SK-MEL-28 cells assessed as growth inhibition at 10 uM after 24 hrs by SRB assay; type: functional; conditions: SK-MEL-28, 24 h, read-out: GI
SK-MEL-5 = assay: Cytotoxicity against human SK-MEL-5 cells assessed as growth inhibition at 10 uM after 24 hrs by SRB assay; type: functional; conditions: SK-MEL-5, 24 h, read-out: GI
UACC-257 = assay: Cytotoxicity against human UACC257 cells assessed as growth inhibition at 10 uM after 24 hrs by SRB assay; type: functional; conditions: UACC-257, 24 h, read-out: GI
UACC-62 = assay: Cytotoxicity against human UACC62 cells assessed as growth inhibition at 10 uM after 24 hrs by SRB assay; type: functional; conditions: UACC-62, 24 h, read-out: GI
OVCAR-3 = assay: Cytotoxicity against human OVCAR3 cells assessed as growth inhibition at 10 uM after 24 hrs by SRB assay; type: functional; conditions: OVCAR-3, 24 h, read-out: GI
OVCAR-4 = assay: Cytotoxicity against human OVCAR4 cells assessed as growth inhibition at 10 uM after 24 hrs by SRB assay; type: functional; conditions: OVCAR-4, 24 h, read-out: GI
OVCAR-8 = assay: Cytotoxicity against human OVCAR8 cells assessed as growth inhibition at 10 uM after 24 hrs by SRB assay; type: functional; conditions: OVCAR-8, 24 h, read-out: GI
NCI/ADR-RES = assay: Cytotoxicity against human NCI/ADR-RES cells assessed as growth inhibition at 10 uM after 24 hrs by SRB assay; type: functional; conditions: read-out: GI
SK-OV-3 = assay: Cytotoxicity against human SKOV3 cells assessed as growth inhibition at 10 uM after 24 hrs by SRB assay; type: functional; conditions: SK-OV-3, 24 h, read-out: GI
786-0 [6] = assay: Cytotoxicity against human 786-0 cells assessed as growth inhibition at 10 uM after 24 hrs by SRB assay; type: functional; conditions: 786-0, 24 h, read-out: GI
ACHN = assay: Cytotoxicity against human ACHN cells assessed as growth inhibition at 10 uM after 24 hrs by SRB assay; type: functional; conditions: read-out: GI
CAKI-1 = assay: Cytotoxicity against human CAKI-1 cells assessed as growth inhibition at 10 uM after 24 hrs by SRB assay; type: functional; conditions: CAKI-1, 24 h, read-out: GI
RXF 393 [7] = assay: Cytotoxicity against human RXF393 cells assessed as growth inhibition at 10 uM after 24 hrs by SRB assay; type: functional; conditions: RXF 393, 24 h, read-out: GI
TK-10 [8] = assay: Cytotoxicity against human TK10 cells assessed as growth inhibition at 10 uM after 24 hrs by SRB assay; type: functional; conditions: TK-10, 24 h, read-out: GI
PC-3 = assay: Cytotoxicity against human PC3 cells assessed as growth inhibition at 10 uM after 24 hrs by SRB assay; type: functional; conditions: PC-3, 24 h, read-out: GI
MCF7 = assay: Cytotoxicity against human MCF7 cells assessed as growth inhibition at 10 uM after 24 hrs by SRB assay; type: functional; conditions: MCF7, 24 h, read-out: GI
MDA-MB-231 [9] = assay: Cytotoxicity against human MDA-MB-231 cells assessed as growth inhibition at 10 uM after 24 hrs by SRB assay; type: functional; conditions: MDA-MB-231, 24 h, read-out: GI
[10] = Cytotoxicity against human Hs578T cells assessed as growth inhibition at 10 uM after 24 hrs by SRB assay; type: functional; conditions: Hs-578T, read-out: GI
T47D = assay: Cytotoxicity against human T47D cells assessed as growth inhibition at 10 uM after 24 hrs by SRB assay; type: functional; conditions: read-out: GI
MDA-MB-231 [11] = assay: Cytotoxicity against human MDA-MB-231 cells after 48 hrs by SRB assay; type: functional; conditions: MDA-MB-231, 48 h
SK-MEL-28 [12] = assay: Cytotoxicity against human SK-MEL-28 cells after 48 hrs by SRB assay; type: functional; conditions: SK-MEL-28, 48 h
DU-145 = assay: Cytotoxicity against human DU145 cells after 48 hrs by SRB assay; type: functional; conditions: DU-145, 48 h
SNB-75 [13] = assay: Cytotoxicity against human SNB75 cells after 48 hrs by SRB assay; type: functional; conditions: SNB-75, 48 h
U-251 [14] = assay: Cytotoxicity against human U251 cells after 48 hrs by SRB assay; type: functional; conditions: U-251, 48 h
TK-10 [15] = assay: Cytotoxicity against human TK10 cells after 48 hrs by SRB assay; type: functional; conditions: TK-10, 48 h
786-0 [16] = assay: Cytotoxicity against human 786-0 cells after 48 hrs by SRB assay; type: functional; conditions: 786-0, 48 h
RXF 393 [17] = assay: Cytotoxicity against human RXF393 cells after 48 hrs by SRB assay; type: functional; conditions: RXF 393, 48 h
HOP-62 [18] = assay: Cytotoxicity against human HOP62 cells after 48 hrs by SRB assay; type: functional; conditions: HOP-62, 48 h
HOP-92 [19] = assay: Cytotoxicity against human HOP92 cells after 48 hrs by SRB assay; type: functional; conditions: HOP-92, 48 h
Ovis aries = species on record: Ovis aries; assay: Inhibition of sheep tubulin polymerization at 100 uM by fluorescence assay

**Q.** For COc1nc(OC)nc(-c2cc(C(=O)c3ccc(Br)cc3)n3ccccc23)n1, which “growth inhibition (GI)” value (CCRF-CEM) is on record?
**A.** inactive

**Q.** And the inhibition of growth at 10 µM (HL-60(TB))?
**A.** 12%

**Q.** And the inhibition of growth at 10 µM (K562)?
**A.** 22%

**Q.** And the inhibition of growth at 10 µM (RPMI-8226)?
**A.** 26%

**Q.** What about the inhibition of growth at 10 µM (SR) of the same compound?
**A.** 36%

**Q.** What about the inhibition of growth at 10 µM (A549) of the same compound?
**A.** 62%

**Q.** And the inhibition of growth at 10 µM (HOP-62 [1])?
**A.** 96%

**Q.** And the inhibition of growth at 10 µM (HOP-92 [2])?
**A.** 59%

**Q.** And the inhibition of growth at 10 µM (NCI-H226)?
**A.** 75%

**Q.** And the inhibition of growth at 10 µM (NCI-H460)?
**A.** 70%

**Q.** What about the inhibition of growth at 10 µM (NCI-H522) of the same compound?
**A.** 40%

**Q.** What about the inhibition of growth at 10 µM (HCT-116) of the same compound?
**A.** 65%

**Q.** And the inhibition of growth at 10 µM (SF-295)?
**A.** 87%

**Q.** What about the inhibition of growth at 10 µM (SF-539) of the same compound?
**A.** 76%

**Q.** What about the inhibition of growth at 10 µM (SNB-75 [3]) of the same compound?
**A.** -5%

**Q.** What about the inhibition of growth at 10 µM (U-251 [4]) of the same compound?
**A.** 61%

**Q.** And the inhibition of growth at 10 µM (Malme-3M)?
**A.** 37%

**Q.** What about the inhibition of growth at 10 µM (MDA-MB-435) of the same compound?
**A.** 45%

**Q.** And the inhibition of growth at 10 µM (SK-MEL-28 [5])?
**A.** 63%

**Q.** And the inhibition of growth at 10 µM (SK-MEL-5)?
**A.** 27%

**Q.** What about the inhibition of growth at 10 µM (UACC-257) of the same compound?
**A.** 62%

**Q.** And the inhibition of growth at 10 µM (UACC-62)?
**A.** 30%

**Q.** And the inhibition of growth at 10 µM (OVCAR-3)?
**A.** 44%

**Q.** And the inhibition of growth at 10 µM (OVCAR-4)?
**A.** 88%

**Q.** What about the inhibition of growth at 10 µM (OVCAR-8) of the same compound?
**A.** 52%

**Q.** And the inhibition of growth at 10 µM (NCI/ADR-RES)?
**A.** 50%

**Q.** And the inhibition of growth at 10 µM (SK-OV-3)?
**A.** -11%

**Q.** What about the inhibition of growth at 10 µM (786-0 [6]) of the same compound?
**A.** 59%

**Q.** What about the inhibition of growth at 10 µM (ACHN) of the same compound?
**A.** 70%

**Q.** And the inhibition of growth at 10 µM (CAKI-1)?
**A.** 56%

**Q.** What about the inhibition of growth at 10 µM (RXF 393 [7]) of the same compound?
**A.** 75%

**Q.** What about the inhibition of growth at 10 µM (TK-10 [8]) of the same compound?
**A.** 78%

**Q.** What about the inhibition of growth at 10 µM (PC-3) of the same compound?
**A.** 55%

**Q.** What about the inhibition of growth at 10 µM (MCF7) of the same compound?
**A.** 18%

**Q.** What about the inhibition of growth at 10 µM (MDA-MB-231 [9]) of the same compound?
**A.** 48%

**Q.** And the inhibition of growth at 10 µM [10]?
**A.** 96%

**Q.** What about the inhibition of growth at 10 µM (T47D) of the same compound?
**A.** 52%

**Q.** What about the GI50 (MDA-MB-231 [11]) of the same compound?
**A.** 0.92 µM

**Q.** What about the GI50 (SK-MEL-28 [12]) of the same compound?
**A.** 83.8 µM

**Q.** What about the GI50 (DU-145) of the same compound?
**A.** 29.1 µM

**Q.** What about the GI50 (SNB-75 [13]) of the same compound?
**A.** 0.87 µM

**Q.** What about the GI50 (U-251 [14]) of the same compound?
**A.** 1.87 µM

**Q.** What about the GI50 (TK-10 [15]) of the same compound?
**A.** 3.32 µM

**Q.** What about the GI50 (786-0 [16]) of the same compound?
**A.** 2.6 µM

**Q.** What about the GI50 (RXF 393 [17]) of the same compound?
**A.** 4.74 µM

**Q.** And the GI50 (HOP-62 [18])?
**A.** 2.18 µM

**Q.** And the GI50 (HOP-92 [19])?
**A.** 1.08 µM

**Q.** What about the inhibition (Ovis aries) of the same compound?
**A.** inactive
